# Test results as given in patent US20250176599A1, “FLAVOR COMPOSITION AND FOOD AND BEVERAGE” (TAKASAGO INTERNATIONAL CORPORATION, priority 2021, published 2025).
# Assays:
# [1] = Overall conclusion of the sensory evaluation across shortenings I and II
# Procedure: (§1) To commercially available shortening (“Pampas LTR30” manufactured by Fuji Oil Co., Ltd.), each degradation component was added to prepare degradation component-added shortenings I and II at the concentrations listed in Table 17. To these degradation component-added shortenings, β-ionone was added at the concentrations listed in Table 18 to confirm the intensity of the off-flavor (masking effect) and the intensity of the masking components (impact on the flavor of the shortening itself) for each sample.
# (§2) Eight experienced panelists were selected to conduct a sensory evaluation similar to that of Example 1.
# (§3) The same method as in Example 16 was used to confirm the intensity of the off-flavor (masking effect) derived from unsaturated fatty acids by β-damascenone and the intensity of the masking components (impact on the flavor of the shortening itself).
# [2] = Sensory evaluation of degradation component-added shortening I ((E)-2-octenal 500 ppb); settings: average panel score
# Procedure: as §1
# Eight experienced panelists were selected to conduct a sensory evaluation similar to that of Example 1. […]
# [3] = Sensory evaluation of degradation component-added shortening II (1,5-octadien-3-one 1 ppb); settings: average panel score
# Procedure: as §1, §2, §3
# [4] = Sensory evaluation of degradation component-added mayonnaise II (1,5-octadien-3-one 5 ppm)
# Procedure: To commercially available mayonnaise (“Kewpie Mayonnaise” manufactured by Kewpie Corporation), each degradation component was added to prepare degradation component-added mayonnaises I and II at the concentrations listed in Table 20. To these degradation component-added mayonnaises, oleic acid was added at the concentrations listed in Table 21 to confirm the intensity of the off-flavor (masking effect) and the intensity of the masking components (impact on the flavor of the mayonnaise itself) for each sample.
# Six experienced panelists were selected to conduct a sensory evaluation similar to that of Example 1.
# To the degradation component-added mayonnaise II listed in Table 20, menthyl 3-hydroxybutyrate was added at the concentrations listed in Table 22 to confirm the intensity of the off-flavor (masking effect) and the intensity of the masking component (impact on the flavor of the mayonnaise itself) for each sample.
SMILES,"concentration that masks the off-flavor and does not affect the flavor of the shortening itself, upper limit [1]",Masking Component Intensity ([2]; 1 ppb added),Off-Flavor Intensity ([2]; 1 ppb added),Masking Component Intensity ([2]; 1 ppt added),Off-Flavor Intensity ([2]; 1 ppt added),Masking Component Intensity ([2]; 10 ppb added),Off-Flavor Intensity ([2]; 10 ppb added),Masking Component Intensity ([2]; 10 ppt added),Off-Flavor Intensity ([2]; 10 ppt added),Masking Component Intensity ([2]; 100 ppt added),Off-Flavor Intensity ([2]; 100 ppt added),Masking Component Intensity ([3]; 1 ppb added),Off-Flavor Intensity ([3]; 1 ppb added),Masking Component Intensity ([3]; 1 ppt added),Off-Flavor Intensity ([3]; 1 ppt added),Masking Component Intensity ([3]; 10 ppb added),Off-Flavor Intensity ([3]; 10 ppb added),Masking Component Intensity ([3]; 10 ppt added),Off-Flavor Intensity ([3]; 10 ppt added),Masking Component Intensity ([3]; 100 ppt added),further results
"CC(=O)/C=C/C1=C(C)CCCC1(C)C [β-Ionone, β-ionone]",≤ 10 ppb,2.1,1.5,0.6,3.1,2.6,1.1,1.1,2.6,1.8,2.4,1.9,2.4,0.4,3.6,2.3,2.0,0.9,3.4,1.5,"concentration that masks the off-flavor and does not affect the flavor of the shortening itself, lower limit [1]: ≥ 10 ppt; Off-Flavor Intensity ([3]; 100 ppt added): 2.8"
"C/C=C/C(=O)C1=C(C)C=CCC1(C)C [β-Damascenone, β-damascenone]",≤ 10 ppb,2.9,1.8,1.1,3.1,3.1,1.1,1.5,2.6,2.1,2.3,2.5,2.3,0.9,3.4,2.6,2.0,1.3,3.0,1.9,Off-Flavor Intensity ([3]; 100 ppt added): 2.5
CC(O)CC(=O)OC1CC(C)CCC1C(C)C (stereo not shown) [menthyl 3-hydroxybutyrate],,,,,,,,,,,,,,,,,,,,,"concentration that masks the off-flavor and does not affect the flavor of the mayonnaise itself, lower limit [4]: ≥ 100 ppt; concentration that masks the off-flavor and does not affect the flavor of the mayonnaise itself, upper limit [4]: ≤ 100 ppm; Masking Component Intensity ([4]; 1 ppb added): 0.2; Off-Flavor Intensity ([4]; 1 ppb added): 3.0; Masking Component Intensity ([4]; 1 ppm added): 0.6; Off-Flavor Intensity ([4]; 1 ppm added): 0.8; Masking Component Intensity ([4]; 10 ppb added): 0.2; Off-Flavor Intensity ([4]; 10 ppb added): 2.2; Masking Component Intensity ([4]; 10 ppm added): 1.0; Off-Flavor Intensity ([4]; 10 ppm added): 0.6; Masking Component Intensity ([4]; 50 ppm added): 1.6; Off-Flavor Intensity ([4]; 50 ppm added): 0.6; Masking Component Intensity ([4]; 100 ppb added): 0.4; Off-Flavor Intensity ([4]; 100 ppb added): 1.6; Masking Component Intensity ([4]; 100 ppm added): 2.0; Off-Flavor Intensity ([4]; 100 ppm added): 0.6; Masking Component Intensity ([4]; 100 ppt added): 0.2; Off-Flavor Intensity ([4]; 100 ppt added): 3.0"
